Test results from PubChem BioAssay AID330 (DTP/NCI, 2004).
Several values for one entry are separate records, joined by “and”; a condition that tells them apart may be missing. Equal values may be shown once. Inconclusive results and toxic doses are left out. The calls were made as follows: active = survival T/C of 150% or more; inactive = T/C below 125% in these data.

Tested on: P388 leukemia ip, CD2F1 mice, survival T/C
Assay: NCI In Vivo Anticancer Drug Screen. Data for tumor model P388 Leukemia (intraperitoneal) in CD2F1 (CDF1) mice
Conditions: endpoint: median survival time, higher = longer survival
Summary of the method: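 Mice carrying the transplanted tumor received test compound or vehicle. Survival was recorded in each group, and the value is the treated-group measurement divided by that of the vehicle-treated control group.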

[1] = dose: 50.0 mg/kg/injection, schedule: Q01DX005 (ip), vehicle: Klucel (hydroxypropylcellulose) (HPC)
[2] = dose: 100.0 mg/kg/injection, schedule: Q01DX005 (ip), vehicle: Klucel (hydroxypropylcellulose) (HPC)

Measured: T/C

CCOC(=S)SC1CC2(C)C(CCC3C2CCC2(C)C(OC(C)=O)CCC32)CC1=O (stereo unspecified)
inactive: dose: 100.0 mg/kg/injection, schedule: Q04DX003 (ip), vehicle: saline 96 % of control | dose: 200.0 mg/kg/injection, schedule: Q04DX003 (ip), vehicle: saline 92 % of control | dose: 400.0 mg/kg/injection, schedule: Q04DX003 (ip), vehicle: saline 89 % of control

CN(C)c1ccc(P(=O)(O)O)c(Cl)c1
inactive: dose: 100.0 mg/kg/injection, schedule: Q01DX001 (ip), vehicle: Klucel (hydroxypropylcellulose) (HPC) 99 % of control | dose: 200.0 mg/kg/injection, schedule: Q01DX001 (ip), vehicle: Klucel (hydroxypropylcellulose) (HPC) 96 % of control | dose: 400.0 mg/kg/injection, schedule: Q01DX001 (ip), vehicle: Klucel (hydroxypropylcellulose) (HPC) 96 % of control

Nc1nc(Cl)cc(Cl)n1
inactive: dose: 12.5 mg/kg/injection, schedule: Q01DX009 (ip), vehicle: Klucel (hydroxypropylcellulose) (HPC) 94 % of control | dose: 25.0 mg/kg/injection, schedule: Q01DX009 (ip), vehicle: Klucel (hydroxypropylcellulose) (HPC) 107 % of control | dose: 50.0 mg/kg/injection, schedule: Q01DX009 (ip), vehicle: Klucel (hydroxypropylcellulose) (HPC) 108 % of control | dose: 100.0 mg/kg/injection, schedule: Q01DX009 (ip), vehicle: Klucel (hydroxypropylcellulose) (HPC) 99 % of control

C=CCOC(=O)CCCC1=NC2=CC=CC3=NC(C)=NC(=N1)N23
inactive: dose: 50.0 mg/kg/injection, schedule: Q04DX003 (ip), vehicle: saline with Tween-80 105 % of control | dose: 100.0 mg/kg/injection, schedule: Q04DX003 (ip), vehicle: saline with Tween-80 99 % of control | dose: 200.0 mg/kg/injection, schedule: Q04DX003 (ip), vehicle: saline with Tween-80 91 % of control

CC(=O)Oc1cc2c(cc1Cc1ccc3c(c1)OCO3)OCO2
inactive: [1] 101 % of control | [2] 95 % of control | dose: 200.0 mg/kg/injection, schedule: Q01DX005 (ip), vehicle: Klucel (hydroxypropylcellulose) (HPC) 100 % of control

CC(CCCCCCCC1CC(OS(=O)(=O)O)CCCCCCCCCCCC(OS(=O)(=O)O)CC(OS(=O)(=O)O)CCCCCCCCCCCCCC(=O)O1)OS(=O)(=O)O (stereo unspecified) (tested in a mixture with another compound)
inactive: dose: 25.0 micrograms/kg/injection, schedule: Q01DX005 (ip), vehicle: Klucel (hydroxypropylcellulose) (HPC) 98 % of control | dose: 50.0 micrograms/kg/injection, schedule: Q01DX005 (ip), vehicle: Klucel (hydroxypropylcellulose) (HPC) 103 % of control | dose: 100.0 micrograms/kg/injection, schedule: Q01DX005 (ip), vehicle: Klucel (hydroxypropylcellulose) (HPC) 97 % of control | dose: 200.0 micrograms/kg/injection, schedule: Q01DX005 (ip), vehicle: Klucel (hydroxypropylcellulose) (HPC) 97 % of control

C[N+]1(C)N=C([O-])N(c2ccccc2F)C1=O
inactive: dose: 100.0 mg/kg/injection, schedule: Q04DX003 (ip), vehicle: Klucel (hydroxypropylcellulose) (HPC) 99 % of control | dose: 200.0 mg/kg/injection, schedule: Q04DX003 (ip), vehicle: Klucel (hydroxypropylcellulose) (HPC) 91 % of control

CC(C)OP(=O)(OC(C)C)c1ccncc1
inactive: dose: 100.0 mg/kg/injection, schedule: Q01DX001 (ip), vehicle: saline 99 % of control | dose: 200.0 mg/kg/injection, schedule: Q01DX001 (ip), vehicle: saline 96 % of control | dose: 400.0 mg/kg/injection, schedule: Q01DX001 (ip), vehicle: saline 101 % of control

c1csc(-c2ccn[nH]2)c1
inactive: dose: 15.0 mg/kg/injection, schedule: Q01DX005 (ip), vehicle: saline with Tween-80 100 % of control | dose: 30.0 mg/kg/injection, schedule: Q01DX005 (ip), vehicle: saline with Tween-80 100 % of control | dose: 60.0 mg/kg/injection, schedule: Q01DX005 (ip), vehicle: saline with Tween-80 116 % of control and 91 % of control

CC1CC2OC(=O)CC2C(O)C2(C)C(OC(C)(C)C)CCC12 (stereo unspecified)
inactive: [1] 100 % of control | [2] 90 % of control

OC1CSCc2ccccc21 (stereo unspecified)
inactive: dose: 25.0 mg/kg/injection, schedule: Q01DX009 (ip), vehicle: other 109 % of control | dose: 50.0 mg/kg/injection, schedule: Q01DX009 (ip), vehicle: other 102 % of control | dose: 100.0 mg/kg/injection, schedule: Q01DX009 (ip), vehicle: other 109 % of control | dose: 200.0 mg/kg/injection, schedule: Q01DX009 (ip), vehicle: other 108 % of control

CCOC(=O)/C=C1\SC(C)(C)C1NC(=O)OCc1ccccc1 (stereo unspecified)
inactive: dose: 15.0 mg/kg/injection, schedule: Q01DX005 (ip), vehicle: Klucel (hydroxypropylcellulose) (HPC) 94 % of control | dose: 30.0 mg/kg/injection, schedule: Q01DX005 (ip), vehicle: Klucel (hydroxypropylcellulose) (HPC) 103 % of control | dose: 60.0 mg/kg/injection, schedule: Q01DX005 (ip), vehicle: Klucel (hydroxypropylcellulose) (HPC) 91 % of control and 93 % of control

C/C=C1/CN2C3CC1C1(C(=O)OC)C(OC(C)=O)[C@]4(C[C@H]21)c1ccccc1N(C)C34 (stereo partly specified)
inactive: dose: 3.0 mg/kg/injection, schedule: Q01DX005 (ip), vehicle: Klucel (hydroxypropylcellulose) (HPC) 94 % of control | dose: 6.0 mg/kg/injection, schedule: Q01DX005 (ip), vehicle: Klucel (hydroxypropylcellulose) (HPC) 100 % of control | dose: 12.0 mg/kg/injection, schedule: Q01DX005 (ip), vehicle: Klucel (hydroxypropylcellulose) (HPC) 98 % of control | dose: 24.0 mg/kg/injection, schedule: Q01DX005 (ip), vehicle: Klucel (hydroxypropylcellulose) (HPC) 106 % of control
